From publication PMC12169680, “Design and Mechanistic Analysis of a Potent Bivalent Inhibitor of Transthyretin Amyloid Fibrillogenesis” (Journal of Medicinal Chemistry, 2025)

Experiments:
[1] = molecular target: T1, V122I TTR (Homo sapiens, UniProt P02766, V142I); assay: Inhibition of mechano-enzymatic fibrillogenesis (ThT); assay type: biochemical; settings: for antifibrillogenic activity, in words: V122I TTR
T1 construct: 1-127; His6 (N); TEV cleavage site (N); made in house; host or cells: E. coli BL21 (DE3)
Description: To test their potency as inhibitors of TTR fibril formation, the 15 ligands were evaluated for their ability to inhibit the mechano-enzymatic mechanism of fibrillogenesis of V122I TTR, which is one of the most common amyloidogenic variants, , causing a disease with severity intermediate between the wild-type and other rare, more aggressive types of amyloidosis. […] Biochemical activity of ligands together with their physicochemical properties (i.e., cLogD, TPSA) were taken into consideration and B26 was finally selected as the most promising lead for further studies (Figure A). […] Prototype mds84 was also included for comparison. […] Although higher molar ratios of the monovalent ligands did inhibit fibrillogenesis, this cannot be replicated in vivo because the negative cooperativity of TTR cannot be overcome at feasible drug dosage. ,
Recombinant V122I TTR at 0.5 mg/mL (9 μM) in PBS, pH 7.4 was preincubated (37 °C for 30 min) with an equimolar concentration of ligand (or DMSO alone) before adding trypsin (5 ng/μL). Protein fibrillogenesis was carried out in glass vials stirred at 1400 rpm (IKA magnetic stirrer), 37 °C and spectrophotometric turbidity at 400 nm was used to monitor fibril formation over time until it reached a plateau at 96 h.
Analysis of amyloid material harvested from each sample at the end of the fibrillogenesis was carried out using Thioflavin T (ThT) emission fluorescence and Congo red staining. For these analyses, samples were centrifuged 20 min at 11,600g and pellets were thoroughly rinsed with PBS to remove nonbound ligand, resuspended with 100 μL PBS, pH 7.4, containing 10 μM Thioflavin T (ThT) in Costar 96-well black-wall plates. Bottom fluorescence values (excitation 440 nm, emission 480 nm) were recorded using a BMG LABTECH FLUostar Omega plate reader. Each value was normalized to the ThT signal of the TTR sample without ligand.

[2] = molecular target: T2, isolated recombinant wild-type TTR (Homo sapiens, UniProt P02766); assay: Displacement of 125I-T4 from isolated wild-type TTR; assay type: binding; settings: ligand concentration reducing binding of 125I-thyroxine by isolated recombinant wild-type TTR by 50%; mean ± SD; read-out: bIC50
T2 construct: Native TTR is a noncovalent homotetramer of β-sheet-rich 127-residue protomers; His6 (N); TEV cleavage site (N); made in house; host or cells: E. coli BL21 (DE3)
Description: Competition of ligands with thyroxine for binding by TTR was assayed quantitatively by a previously described procedure.

[3] = molecular target: T3, wild-type TTR in normal human plasma (Homo sapiens, UniProt P02766); assay: Displacement of 125I-T4 from TTR in normal human plasma; assay type: binding; settings: for binding to TTR in plasma, in words: normal human plasma
T3 construct: TTR in whole plasma, from individuals homozygous for wild-type TTR; from tissue; host or cells: whole human plasma from individuals homozygous for wild-type TTR

[4] = ligand concentration reducing binding of 125I-thyroxine by wild-type TTR by 50% in normal human plasma, mean ± SD
[5] = residual V122I TTR fibrillar aggregation with equimolar ligand, ThT emission normalized to protein without ligand, mean ± SD
[6] = supplementary CSV, residual V122I TTR aggregation, equimolar ligand

SMILES	inhibition of V122I TTR amyloid formation at equimolar ligand/protein, in words ([1]; 9 μM V122I TTR, equimolar concentration, bivalent vs monovalent ligands)	IC50 [2]	IC50 [3, 4]	binding to TTR in plasma, in words [3]	antifibrillogenic activity, in words ([1]; equimolar ligand)	Agg (%) [1, 5]	Agg (%) [1, 6]	IC50 ([3]; supplementary CSV, TTR in normal human plasma)
Cc1n[nH]c(C)c1CCCOc1cc(C(=O)O)ccc1F [AG10, acoramidis, reference compound]	significantly lower inhibitory effect							
O=C(O)CCc1cc(Cl)c(OCCCOCCOc2c(Cl)cc(Nc3ccccc3C(=O)O)cc2Cl)c(Cl)c1 [B1, 2-[4-[2-[3-[4-(2-Carboxyethyl)-2,6-dichloro-phenoxy]-propoxy]-ethoxy]-3,5-dichloro-anilino]-Benzoic Acid]		100 ± 30 nM	1100 ± 110 nM	increased the potency of binding	excellent inhibitors of fibrillogenesis	5.2 ± 3.6%	5.2±3.6%	
O=C(O)CCc1cc(Cl)c(OCCOCCCCOc2c(Cl)cc(Nc3ccccc3C(=O)O)cc2Cl)c(Cl)c1 [B2, 2-[4-[4-[2-[4-(2-Carboxyethyl)-2,6-dichloro-phenoxy]-ethoxy]-butoxy]-3,5-dichloro-anilino]-Benzoic Acid]			2600 ± 590 nM	increased the potency of binding	excellent inhibitors of fibrillogenesis	4.4 ± 1.5%	4.4±1.5%	
O=C(O)CCc1cc(Cl)c(OCC[C@H](O)[C@@H](O)CCOc2c(Cl)cc(Nc3ccccc3C(=O)O)cc2Cl)c(Cl)c1 [B4, 2-[4-[(3S,4S)-6-[4-(2-Carboxyethyl)-2,6-dichloro-phenoxy]-3,4-dihydroxy-hexoxy]-3,5-dichloro-anilino]-benzoic acid]				increased the potency of binding	excellent inhibitors of fibrillogenesis	4.4 ± 3.0%		
O=C(O)CCc1cc(Cl)c(OCC[C@@H](O)[C@H](O)CCOc2c(Cl)cc(Nc3ccccc3C(=O)O)cc2Cl)c(Cl)c1 [B4A, 2-[4-[(3R,4R)-6-[4-(2-carboxyethyl)-2,6-dichloro-phenoxy]-3,4-dihydroxy-hexoxy]-3,5-dichloro-anilino]-Benzoic Acid]		70 ± 9 nM		increased the potency of binding	excellent inhibitors of fibrillogenesis	3.3 ± 1.2%	4.4±3.0%	4400 ± 1200 nM
O=C(O)CCc1cc(Cl)c(OCC[C@@H](O)[C@H](O)CCOc2ccc(Nc3ccccc3C(=O)O)cc2Cl)c(Cl)c1 [B20, 2-[4-[(3R,4R)-6-[4-(2-Carboxyethyl)-2,6-dichloro-phenoxy]-3,4-dihydroxy-hexoxy]-3-chloro-anilino]-Benzoic Acid]				reduction in the observed potency	reduced potency	11 ± 4.1%	11±4.1%	
O=C(O)CCc1ccc(OCC[C@@H](O)[C@H](O)CCOc2ccc(Nc3ccccc3C(=O)O)cc2Cl)c(Cl)c1 [B22, 2-[4-[(3R,4R)-6-[4-(2-Carboxyethyl)-2-chloro-phenoxy]-3,4-dihydroxy-hexoxy]-3-chloro-anilino]Benzoic Acid]				reduction in the observed potency	reduced potency	15 ± 2.8%	15±2.8%	
O=C(O)CCc1cc(Cl)c(OCCCOCCOc2c(Cl)cc(Nc3ccnnc3C(=O)O)cc2Cl)c(Cl)c1 [B25, 4-[4-[2-[3-[4-(2-Carboxyethyl)-2,6-dichloro-phenoxy]-propoxy]-ethoxy]-3,5-dichloro-anilino]-Pyridazine-3-Carboxylic acid]			3300 ± 1800 nM	preservation of the properties		11 ± 4.8%	11±4.8%	
O=C(O)CCc1cc(Cl)c(OCCCOCCOc2c(Cl)cc(Nc3ccncc3C(=O)O)cc2Cl)c(Cl)c1 [B27, 4-[4-[2-[3-[4-(2-Carboxyethyl)-2,6-dichloro-phenoxy]-propoxy]-ethoxy]-3,5-Dichloro-anilino]-Pyridine-3-Carboxylic Acid]				preservation of the properties		12 ± 1.1%	12±1.1%	
